Reference: patent US12102631B2, “Quinolylnitrones for the treatment and prevention of a cerebral stroke or ischaemia” (ISQUAEMIA BIOTECH, S.L., priority 2018, dated 2024)

Experiments:
Type in all cases: biochemical
[1] = Inhibition of linoleic acid peroxidation (AAPH, ILPO); settings: tested at 100 μM
Description: Inhibition of Linoleic Acid Peroxidation.^32 For initiating the free radical, 2,2′-azobis(2-amidinopropane) dihydrochloride (AAPH) is used. The final solution in the UV cuvette consisted of ten microliters of the 16 mM linoleate sodium dispersion 0.93 mL of 0.05 M phosphate buffer, pH 7.4, thermostatted at 37° C. 50 μL of 40 mM AAPH solution was added as a free radical initiator at 37° C. under air and 10 μL of the tested compounds. The oxidation of linoleic acid sodium salt results a conjugated diene hydroperoxide. The reaction is monitored at 234 nm (Table 1).
3.3. Anti-lipid peroxidation activity of QNs. The water-soluble azo compound 2,2′-azobis(2-amidinopropane) dihydrochloride (AAPH) has been extensively used as a clean and controllable source of thermally produced alkyl peroxyl free radicals through spontaneous thermal decomposition. […] In the AAPH assay to determine the inhibition of the lipid peroxidation (ILPO), the highly reactive alkylperoxyl radicals are intercepted mainly by a hydrogen atom transfer from the antioxidant. As shown, QN23 presented limited value, where QNs 19, 22 and 24 presented very high values (Table 3).

[2] = Interaction with the stable radical DPPH; settings: tested at 100 μM; reducing activity
Description: Interaction of the nitrone with the Stable Radical 1,1-diphenyl-picrylhydrazyl (DPPH) To a solution of DPPH in absolute ethanol the appropriate volume of the compounds (0.1 mM final concentrations) dissolved in DMSO was added. The absorbance was recorded at 517 nm after 20 and 60 min at room temperature (Table 1).
3.1. Antioxidant activity of QNs using radical DPPH. […] This purple colour generally disappears in the presence of an antioxidant due to the reduction of the DPPH radical by single electron transfer (SET) from the antioxidant converted it to colourless/bleached product. […] In this assay, we measured the initial absorbance of DPPH and the absorbance once the potential antioxidant was added. The antioxidant activity was expressed as the percentage of reducing activity.

[3] = Hydroxyl radical scavenging (competition with DMSO); settings: tested at 100 μM
Description: Hydroxyl Radicals Scavenging Activity.^32 The hydroxyl radicals were produced by the Fe^3+/ascorbic acid system. EDTA (0.1 mM), Fe^3+ (167 μM), DMSO (33 mM) in phosphate buffer (50 mM, pH 7.4), the tested compounds (0.1 mM) and ascorbic acid (10 mM) were mixed in test tubes. The solutions were incubated at 37° C. for 30 min. The reaction was stopped by trichloroacetic acid (17% w/v) (Table 1) and the % scavenging activity of the tested compounds for hydroxyl radicals was given.
3.2. Competition of QNs with DMSO for hydroxyl radicals. Among the ROS, the hydroxyl (·OH) free radical is possibly the most toxic, as it easily reacts with biological important molecules such as DNA, lipids or carbohydrates. Polyunsaturated fatty acids are found in high concentrations in the CNS, and are particularly vulnerable to free radicals attack. Thus, we tried to test the ability of our compound to scavenge hydroxyl radicals. […] Antioxidants with lipophilic character are needed to act as radical scavengers or as chain-breaking antioxidants in biological membranes.

[4] = ABTS radical cation decolorization assay; settings: tested at 100 μM
Description: ABTS^⋅+-decolorization assay in ethanolic solution for antioxidant activity.^32,35 ABTS is dissolved in water to a 2 mM concentration. ABTS radical cation (ABTS^⋅+) is produced by reacting the ABTS stock solution with 0.17 mM potassium persulfate in phosphate buffer (pH 7.4, 20 mM) and allowing the mixture to stand in the dark at room temperature for 12-16 h before use. For steady state measurements, […] ABTS^⋅+ was used. For the present study, the […] ABTS^⋅ solution (200 μL) was diluted with ethanol (790 μL) to an absorbance of 0.70 at 734 nm, equilibrated at room temperature, mixed with 10 μL of the tested compounds (stock solutions 10 mM) and the absorbance reading was taken at room temperature 1 min after the initial mixing. Trolox was used as a standard.
3.4. ABTS^⋅+ antioxidant activity of QNs. The ABTS^⋅+ radical cation, derived from the oxidation of 2,2′-azino-bis(3-ethylbenzothiazoline-6-sulphonic acid) (ABTS) by potassium persulfate, is a green-blue stable chromophore, which can be analyzed in the course of a decolorization assay. The addition of electron-donor antioxidants leads to ABTS^⋅+ reduction. The chemistry taking place involves the direct generation of the ABTS^⋅+ with no involvement of an intermediary radical. […] Again, and as shown, QN23 presented limited activity beside with 19, although the others nitrones had no activity (Table 3).

[5] = Superoxide radical scavenging (hypoxanthine/xanthine oxidase system); settings: tested at 100 μM (0.1 mM)
Source text: 3.7. Superoxide radical scavenging activity. Superoxide anion radical (O2⋅−) is less toxic than hydroxyl radical, but still one of the most known harmful toxic ROS. In physiological conditions, superoxide dismutase catalyzes its conversion to H2O2, which is the precursor for the formation of hydroxyl radicals in the presence of iron ions.43 Superoxide anion radicals O2⋅− and H2O2 are ROS produced in vivo through a one-electron reduction process of O2. The evaluation of superoxide anion radical scavenging activity can be determined using assays involving non-enzymatic or enzymatic production of superoxide anions. In this assay, superoxide anion radicals were generated by a hypoxanthine and xanthine oxidase reaction system, and the O2⋅− scavenging activity (%) has been measured spectrophotometrically.

[6] = Quantitative nitrite assay for NO release (Griess); settings: 100 μM, L-cysteine, pH 7.4, 60 min 37° C.
Description: Quantitative nitrite assays for NO release. A solution of nitrone 23 (final concentration 100 μM) (20 μL), dissolved in DMSO, was added to 2 mL of 50 mM phosphate buffer (pH=7.4) containing the appropriate amount of thiol cofactor 1 mM (L-cysteine). After 60 min at 37° C., 1 mL of the reaction mixture was treated with 250 μL of the Griess reagent (4 g sulfanilamide, 0.2 g N-naphthyl-ethyldiamine dihydrochloride, 10 mL of 85% phosphoric acid in distilled water, final volume 100 mL). After the mixture stood for 10 min at rt, absorbance was recorded at 540 nm. Sodium nitroprusside (SNP) was used as standard reference compound (100 μM). The yield in nitrite (NO2^− release) for nitrone 23, as function of L-cysteine (mM concentration) is given in Table 1, expressed as % NO2^− (mol/mol).
QNs were tested in vitro for their ability to release NO by the action of a thiol co-factor. NO release with simultaneous production of cyanide occurs by action of reducing agents like thiols. L-cysteine was used as a co-factor in this in vitro biological test. […] The screened compounds (final concentration 100 μM) was tested for its ability to release NO when dissolved in a phosphate buffer containing L-cysteine (pH 7.4). Air was oxidizing the initially formed NO, transforming it to nitrites, which were detected by the Griess reaction. Virtually, no formation of NO2^− was detectable in the absence of L-cysteine for the nitrones tested.

SMILES | ILPO (%) / AAPH (%) [1] | DPPH (%) [2] | *OH (%) [3] | ABTS*+ (%) [4] | O2*− (%) [5] | NO2− (%) (mol/mol) [6]
CC(C)(C)/[N+]([O-])=C/c1ccc(S(=O)(=O)O)cc1S(=O)(=O)O [Compound 2, sodium (Z)-4-((tert-butyloxidoazanylidene)methyl)benzene-1,3-disulfonate, reference compound] | no | no | 94% | no | no activity and no | 1 % (mol/mol)
COc1ccc2nc(Cl)c(/C=[N+](/C)[O-])cc2c1 [Compound 22, (Z)-1-(2-Chloro-6-methoxyquinolin-3-yl)-N-methylmethanimine oxide] | 100% | no | 100% | no | 29% | 11 % (mol/mol)
COc1ccc2nc(Cl)c(/C=[N+](\[O-])Cc3ccccc3)cc2c1 [Compound 24, (Z)—N-Benzyl-1-(2-chloro-6-methoxyquinolin-3-yl)methanimine oxide] | 100% | 3% | 65% | no | 12.5% | 12.5 % (mol/mol)
COc1ccc2nc(Cl)c(/C=[N+](\[O-])C(C)(C)C)cc2c1 [Compound 23, (Z)—N-tert-Butyl-1-(2-chloro-6-methoxyquinolin-3-yl)methanimine oxide] | 22% | 4% | 100% | 7% | 5% | 3 % (mol/mol)
CC(C)(C)/[N+]([O-])=C/c1cc2ccccc2[nH]c1=O [Compound 19, (Z)—N-tert-Butyl-1-(2-oxo-1,2-dihydroquinolin-3-yl)methanimine oxide] | 100% | no | 99% | 6% | 23% | –
CC(C)(C)/[N+]([O-])=C/c1cc2ccccc2nc1Cl [Compound 18, (Z)—N-t-Butyl-1-(2-chloroquinolin-3-yl)methanimine oxide] | no | 7% | 97% | no | 16% | 7.5 % (mol/mol)
COc1ccc2nc(Cl)c(C=O)cc2c1 [Compound 32, 2-chloro-6-methoxyquinoline-3-carbaldehyde, reference compound] | 25% | 1% | 89% | 5% | 23% | 2.5 % (mol/mol)
